Common to all, as to settings: incubation time: 72 h
Experiment [1] relates to BT-474. The experiment can be described thus: normalised response (% of control), CellTiter-Glo; higher = more viable cells (100 = DMSO, 0 = benzethonium chloride kill control). In outline: (§1)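 The table gives the normalised signal for a single concentration in each entry. Breast cancer cell lines were seeded (20 µl suspension) into 384-well plates holding compound at 5 concentrations in 10-fold steps over a compound-specific 10,000-fold range and incubated 72 h, then read for CellTox Green fluorescence (485/520 nm) and CellTiter-Glo luminescence. Normalisation on each plate used 0.1 % DMSO (100) and a positive kill control (0).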
Background: In ATP-based viability assays light output follows the ATP content of the culture.

Experiment [2] concerns BT-549. Described as above. Summed up:
as §1

Experiment [3] has as its system CAL-120. The experiment is described as above. Summed up:
as §1

Experiment [4] concerns CAL-148. The description is as above. In outline: as §1
The test system of experiment [5] is CAL-51. The experiment is described as above. Summed up: as §1
Experiment [6] has as its system CAL-85-1. The description is as above. In outline: as §1
Experiment [7] deals with DU-4475. The experiment is described as above. Summed up:
as §1

Experiment [8] deals with HCC1143. The experiment is described as above. In outline:
as §1

The test system of experiment [9] is HCC1599. The description is as above. In outline:
as §1

Experiment [10] deals with HCC1937. Described as above. Summed up:
as §1

A further experiment has as its system HDQ-P1. The experiment is described as above. Summed up:
as §1

The test system of another experiment is Hs578T. The description is as above. Summed up:
as §1

The subject of experiment [11] is MCF-10A. Described as above. Summed up: as §1
Experiment [12] relates to MDA-MB-231. The experiment is described as above. In outline:
as §1

In experiment [13] the test system is MDA-MB-436. The description is as above. In outline:
as §1

Experiment [14] deals with MDA-MB-453. Described as above. Summed up:
as §1

For experiment [15], the system named is MDA-MB-468. Described as above. Summed up: as §1
The subject of experiment [16] is MFM-223. Described as above. In outline: as §1
The subject of another experiment is SK-BR-3. The experiment is described as above. In outline: as §1
Experiment [17] deals with BT-474. The experiment can be described thus: normalised response (% of control), CellTox Green; higher = less cell death (100 = DMSO, 0 = benzethonium chloride kill control). In outline: as §1
Experiment [18] relates to BT-549. The description is as above. Summed up: as §1
Experiment [19] concerns CAL-120. Described as above. Summed up: as §1
Experiment [20] has as its system CAL-148. Described as above. In outline: as §1
For experiment [21], the system named is CAL-51. The description is as above. Summed up:
as §1

In experiment [22] the test system is CAL-85-1. Described as above. Summed up: as §1
Experiment [23] relates to DU-4475. The description is as above. Summed up:
as §1

For experiment [24], the system named is HCC1143. Described as above. In outline: as §1
The test system of experiment [25] is HCC1599. The description is as above. Summed up:
as §1

Experiment [26] concerns HCC1937. Described as above. In outline:
as §1

The test system of experiment [27] is MCF-10A. The experiment is described as above. Summed up: as §1
The subject of experiment [28] is MDA-MB-231. The experiment is described as above. In outline: as §1
Experiment [29] deals with MDA-MB-436. The description is as above. Summed up:
as §1

Experiment [30] deals with MDA-MB-453. Described as above. In outline:
as §1

In experiment [31] the test system is MDA-MB-468. The experiment is described as above. Summed up: as §1
In experiment [32] the test system is MFM-223. Described as above. Summed up: as §1

With `O=C(c1ccc(C(=O)N2CCC(N3CCCC3)CC2)c(Nc2ccccc2)c1)N1CCC(N2CCCC2)CC1` [UNC1215] (3 nM), the normalised response with BT-474 [1] amounted to 94.4%; in the experiment on BT-549 [2] it was 96.6%; in the experiment with CAL-120 [3], 95.3%; with CAL-148 [4], 91%; in the experiment on CAL-51 [5], 123%; in the experiment on CAL-85-1 [6] it was 93.7%. Also, the normalised response in the experiment with DU-4475 [7] was determined as 97.2%; in the experiment with HCC1143 [8], 87.5%; with HCC1599 [9], 92.1%; in the experiment with HCC1937 [10], 91.7%; in the experiment on HDQ-P1 it was 97.3%; in the experiment on Hs578T it was 99.1%. The normalised response in the experiment on MCF-10A [11] was 102%; with MDA-MB-231 [12] it was 99.1%; with MDA-MB-436 [13], 93.6%; in the experiment with MDA-MB-453 [14] it was 102%; with MDA-MB-468 [15] it was 101%; in the experiment with MFM-223 [16], 94.5%. Also, the normalised response in the experiment with SK-BR-3 amounted to 99%.

In the case of `O=C(c1ccc(C(=O)N2CCC(N3CCCC3)CC2)c(Nc2ccccc2)c1)N1CCC(N2CCCC2)CC1` [UNC1215] (30 nM), the normalised response stood at 98.7% with BT-474 [1]; 97.8% in the experiment with BT-549 [2]; 102% in the experiment on CAL-120 [3]; 95% in the experiment on CAL-148 [4]; 77.9% in the experiment on CAL-51 [5]; 96.7% in the experiment on CAL-85-1 [6]. The normalised response in the experiment with DU-4475 [7] is 97%; in the experiment on HCC1143 [8], 97.3%; with HCC1599 [9], 118%; in the experiment with HCC1937 [10] it was 96.7%; in the experiment on HDQ-P1, 94.3%; in the experiment with Hs578T, 103%. The normalised response with MCF-10A [11] stood at 103%; with MDA-MB-231 [12], 90.2%; in the experiment on MDA-MB-436 [13] it was 104%; in the experiment with MDA-MB-453 [14] it was 91.5%; in the experiment with MDA-MB-468 [15] it was 97.4%; in the experiment on MFM-223 [16], 91.4%. Further, the normalised response in the experiment with SK-BR-3 was 100%.

With `O=C(c1ccc(C(=O)N2CCC(N3CCCC3)CC2)c(Nc2ccccc2)c1)N1CCC(N2CCCC2)CC1` [UNC1215] (3000 nM), the normalised response was 96.9% in the experiment on BT-474 [17]; 85.1% in the experiment on BT-549 [18]; 99.3% with CAL-120 [19]; 99.7% with CAL-148 [20]; 114% in the experiment with CAL-51 [21]; 96.8% with CAL-85-1 [22]. Further, the normalised response in the experiment with DU-4475 [23] stood at 98.5%; in the experiment on HCC1143 [24], 109%; in the experiment on HCC1599 [25] it was 99.8%; in the experiment on HCC1937 [26] it was 111%; in the experiment on MCF-10A [27] it was 101%; with MDA-MB-231 [28], 98%. Further, the normalised response with MDA-MB-436 [29] was determined as 96.3%; in the experiment with MDA-MB-453 [30], 99.2%; with MDA-MB-468 [31], 80.5%; with MFM-223 [32], 101%; in the experiment with BT-474 [1], 95%; in the experiment with BT-549 [2] it was 96.9%. Further, the normalised response in the experiment on CAL-120 [3] was 98%; in the experiment on CAL-148 [4], 94.9%; in the experiment on CAL-51 [5], 115%; with CAL-85-1 [6] it was 94.7%; in the experiment with DU-4475 [7], 98.3%; in the experiment with HCC1143 [8] it was 93.9%. Also, the normalised response came out at 107% in the experiment with HCC1599 [9]; 94% with HCC1937 [10]; 100% in the experiment with HDQ-P1; 95.3% with Hs578T; 108% in the experiment on MCF-10A [11]; 91.2% in the experiment with MDA-MB-231 [12]. The normalised response with MDA-MB-436 [13] was found to be 92.8%; in the experiment with MDA-MB-453 [14], 98%; with MDA-MB-468 [15], 91.6%; in the experiment with MFM-223 [16], 92.6%; in the experiment with SK-BR-3, 93.5%.

As to `C[C@]1(c2nc3c(C(N)=O)cccc3[nH]2)CCCN1` [Veliparib] (10 nM), the normalised response in the experiment with BT-474 [1] came to 103%; in the experiment on BT-549 [2], 100%; in the experiment with CAL-120 [3], 102%; in the experiment on CAL-148 [4] it was 98.8%; with CAL-51 [5] it was 118%; in the experiment with CAL-85-1 [6], 106%. Besides, the normalised response came to 104% in the experiment on DU-4475 [7]; 105% in the experiment with HCC1143 [8]; 92.1% in the experiment with HCC1599 [9]; 101% in the experiment on HCC1937 [10]; 98.7% with HDQ-P1; 98.8% in the experiment on Hs578T. In addition, the normalised response came out at 105% in the experiment on MCF-10A [11]; 99% in the experiment on MDA-MB-231 [12]; 99% in the experiment on MDA-MB-436 [13]; 109% with MDA-MB-453 [14]; 108% in the experiment on MDA-MB-468 [15]; 99.7% in the experiment with MFM-223 [16]. For the same compound, in the experiment on SK-BR-3, the normalised response was 110%.

With `CC[C@]1(O)C[C@@H]2CN(CCc3c([nH]c4ccccc34)[C@@](C(=O)OC)(c3cc4c(cc3OC)N(C)[C@H]3[C@@](O)(C(=O)OC)[C@H](OC(C)=O)[C@]5(CC)C=CCN6CC[C@]43[C@@H]65)C2)C1` [Vinblastine] (1 nM), the normalised response is 100% with BT-474 [1]; 87.8% with BT-549 [2]; 95% in the experiment with CAL-120 [3]; 98.8% with CAL-148 [4]; 101% with CAL-51 [5]; 93% in the experiment with CAL-85-1 [6]. Also, the normalised response with DU-4475 [7] is 96.9%; in the experiment on HCC1143 [8] it was 97.1%; in the experiment with HCC1599 [9], 101%; with HCC1937 [10], 94.9%; in the experiment with HDQ-P1, 101%; in the experiment with Hs578T, 102%. Moreover, the normalised response in the experiment on MCF-10A [11] is 103%; in the experiment with MDA-MB-231 [12] it was 94.7%; in the experiment on MDA-MB-436 [13], 90.7%; with MDA-MB-453 [14], 97.2%; in the experiment on MDA-MB-468 [15] it was 97.9%; in the experiment on MFM-223 [16] it was 97.6%. In addition, in the experiment on SK-BR-3, the normalised response is 94.7%.

Consider `CS(=O)(=O)c1ccc(C(=O)Nc2ccc(Cl)c(-c3ccccn3)c2)c(Cl)c1` [Vismodegib] (10 nM), for which the normalised response in the experiment with BT-474 [1] is 90.2%; in the experiment with BT-549 [2], 96.4%; with CAL-120 [3], 95.2%; with CAL-148 [4] it was 91%; with CAL-51 [5], 126%; in the experiment on CAL-85-1 [6], 102%. Further, the normalised response amounted to 96.4% with DU-4475 [7]; 93.9% in the experiment with HCC1143 [8]; 100% in the experiment on HCC1599 [9]; 96.4% in the experiment with HCC1937 [10]; 99.4% with HDQ-P1; 95.4% in the experiment with Hs578T. In addition, the normalised response is 90.3% with MCF-10A [11]; 90.8% with MDA-MB-231 [12]; 91.5% in the experiment on MDA-MB-436 [13]; 89.4% in the experiment with MDA-MB-453 [14]; 92.9% with MDA-MB-468 [15]; 94.3% in the experiment with MFM-223 [16]. The compound also had a normalised response in the experiment on SK-BR-3 of 105%.

For the origin of these results see the supplement of paper PMC4862054.
